Experimental findings from ChEMBL document CHEMBL1938343, “Lead optimisation of selective non-zinc binding inhibitors of MMP13. Part 2” (Bioorg Med Chem Lett, 2012) are described below.

Data set [1] concerns the target 72 kDa type IV collagenase (Homo sapiens, UniProt P08253). The data set is described as follows: Inhibition of MMP2 using Mca-Pro-cyclohexyl-Ala-Gly-Nva-His-Ala- Dap(Dnp)-NH2 as substrate by fluorometric analysis. The note with it: read-out: pIC50 (converted).
A further data set concerns the target Collagenase 3 (Homo sapiens, UniProt P45452). Nature of the data set: Inhibition of recombinant human MMP13 using Mca-Pro-cyclohexyl-Ala-Gly-Nva-His-Ala- Dap(Dnp)-NH2 as substrate by fluorometric analysis. Conditions: read-out: pIC50 (converted).
Data set [2] is described as follows: Intrinsic clearance in human microsomes. Format: ADME, Microsome.
Data set [3] concerns the target Matrix metalloproteinase-9 (Homo sapiens, UniProt P14780). Nature of the data set: Inhibition of MMP9 using Mca-Pro-cyclohexyl-Ala-Gly-Nva-His-Ala- Dap(Dnp)-NH2 as substrate by fluorometric analysis. The note with it: read-out: pIC50 (converted).
Data set [4] in a line: Intrinsic clearance in Sprague-Dawley rat hepatocytes assessed per 10^6 cells. The class given is ADME, cell-based, Hepatocyte. The note with it: Sprague-Dawley, read-out: CLH.
Data set [5] deals with Macrophage metalloelastase (Homo sapiens, UniProt P39900). Nature of the data set: Inhibition of MMP12 using Mca-Pro-cyclohexyl-Ala-Gly-Nva-His-Ala- Dap(Dnp)-NH2 as substrate by fluorometric analysis. The note with it: read-out: pIC50 (converted).
Data set [6] deals with Matrix metalloproteinase-14 (Homo sapiens, UniProt P50281). Nature of the data set: Inhibition of MMP14 using Mca-Pro-cyclohexyl-Ala-Gly-Nva-His-Ala- Dap(Dnp)-NH2 as substrate by fluorometric analysis. Conditions: read-out: pIC50 (converted).
Data set [7] can be described thus: Apparent permeability across basolateral to apical side in human Caco2 cells at 10 uM. The class given is ADME, cell-based. Conditions: Caco-2. A general note: Caco-2 cells form a polarised layer with tight junctions and transporters.
The nature of data set [8]: Apparent permeability across apical to basolateral side in human Caco2 cells at 10 uM. Format: ADME, cell-based. Conditions: Caco-2.
A short description of data set [9]: Oral bioavailability in rat. Format: ADME, organism-based. The note with it: in vivo.
Data set [10] has as its target MMP-2/MMP-13 (Homo sapiens) (UniProt P08253+P45452). The data set is described as follows: Selectivity ratio of pIC50 for MMP2 to pIC50 for recombinant human MMP13.

Where only a bound is given, the exact number is not on record here.

Macrophage metalloelastase, sequence (P39900 whole entry): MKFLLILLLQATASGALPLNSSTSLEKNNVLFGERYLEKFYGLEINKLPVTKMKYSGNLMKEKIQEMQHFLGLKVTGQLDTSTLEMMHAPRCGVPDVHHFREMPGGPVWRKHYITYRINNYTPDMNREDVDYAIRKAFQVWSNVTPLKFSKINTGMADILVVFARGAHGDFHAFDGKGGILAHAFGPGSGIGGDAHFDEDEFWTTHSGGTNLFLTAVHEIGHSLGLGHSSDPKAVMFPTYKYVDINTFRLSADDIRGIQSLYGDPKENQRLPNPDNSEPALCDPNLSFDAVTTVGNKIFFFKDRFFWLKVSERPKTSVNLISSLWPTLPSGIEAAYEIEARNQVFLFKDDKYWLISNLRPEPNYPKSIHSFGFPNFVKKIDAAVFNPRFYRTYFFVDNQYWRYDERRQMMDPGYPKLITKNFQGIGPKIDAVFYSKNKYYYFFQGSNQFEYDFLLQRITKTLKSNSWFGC
Matrix metalloproteinase-9, sequence (P14780 whole entry): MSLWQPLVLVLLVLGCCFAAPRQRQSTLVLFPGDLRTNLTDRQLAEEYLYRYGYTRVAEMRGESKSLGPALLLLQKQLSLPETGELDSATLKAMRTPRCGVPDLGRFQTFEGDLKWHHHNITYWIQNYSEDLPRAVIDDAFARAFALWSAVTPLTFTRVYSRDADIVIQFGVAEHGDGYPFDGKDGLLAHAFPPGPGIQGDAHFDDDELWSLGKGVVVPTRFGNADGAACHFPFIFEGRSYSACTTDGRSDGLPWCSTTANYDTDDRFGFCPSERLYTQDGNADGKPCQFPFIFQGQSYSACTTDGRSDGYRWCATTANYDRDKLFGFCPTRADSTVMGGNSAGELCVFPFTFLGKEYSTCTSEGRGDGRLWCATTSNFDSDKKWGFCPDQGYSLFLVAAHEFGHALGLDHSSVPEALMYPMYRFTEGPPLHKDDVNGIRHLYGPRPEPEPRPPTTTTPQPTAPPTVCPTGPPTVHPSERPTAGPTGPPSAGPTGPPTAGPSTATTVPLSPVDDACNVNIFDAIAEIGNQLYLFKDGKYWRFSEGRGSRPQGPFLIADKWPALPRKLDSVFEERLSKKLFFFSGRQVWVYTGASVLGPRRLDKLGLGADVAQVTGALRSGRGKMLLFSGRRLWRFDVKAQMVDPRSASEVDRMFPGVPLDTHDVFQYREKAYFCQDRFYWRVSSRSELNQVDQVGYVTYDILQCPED
72 kDa type IV collagenase, sequence (P08253 whole entry): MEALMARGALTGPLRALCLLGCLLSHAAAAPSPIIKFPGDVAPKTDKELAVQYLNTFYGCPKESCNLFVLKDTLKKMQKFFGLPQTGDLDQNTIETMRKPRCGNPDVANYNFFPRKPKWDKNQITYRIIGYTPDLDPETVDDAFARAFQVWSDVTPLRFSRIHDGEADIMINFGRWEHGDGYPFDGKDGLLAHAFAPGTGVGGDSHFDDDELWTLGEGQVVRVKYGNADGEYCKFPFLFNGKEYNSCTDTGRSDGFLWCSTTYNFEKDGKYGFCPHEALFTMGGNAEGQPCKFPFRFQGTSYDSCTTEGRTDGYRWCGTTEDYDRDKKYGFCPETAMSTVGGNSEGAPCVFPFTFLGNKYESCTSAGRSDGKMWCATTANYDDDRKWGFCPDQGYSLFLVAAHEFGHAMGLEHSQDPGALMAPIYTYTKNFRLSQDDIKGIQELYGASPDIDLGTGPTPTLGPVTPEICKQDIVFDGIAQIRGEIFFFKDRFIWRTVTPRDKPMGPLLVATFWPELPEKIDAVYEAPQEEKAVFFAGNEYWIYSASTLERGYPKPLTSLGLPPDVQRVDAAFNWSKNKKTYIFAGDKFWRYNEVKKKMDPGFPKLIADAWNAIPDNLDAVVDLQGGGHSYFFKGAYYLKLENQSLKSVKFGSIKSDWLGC
MMP-2/MMP-13 (Homo sapiens), sequence (P08253 whole entry, looked up, other chains not shown): as the sequence (P08253 whole entry) above

With `COc1cccc(CNC(=O)c2ccc(Oc3ccc(C#C[C@]4(O)CN5CCC4CC5)cc3)cc2)c1`, the IC50 in data set [1] is over 10000 nM; on Collagenase 3 it was 79.4 nM. In addition, the microsomal CLint – broadly, a measure of how fast metabolising enzymes remove a compound, apart from limits set by blood flow – in data set [2] is 10.9 µL/min/mg.

For the molecule `CNS(=O)(=O)c1ccc(Oc2ccc(C#C[C@]3(O)CN4CCC3CC4)cc2)cc1`, the IC50 on Collagenase 3 was 100 nM.

On to `O=C(Nc1ccccn1)c1ccc(Oc2ccc(C#C[C@]3(O)CN4CCC3CC4)cc2)cc1`, for which the IC50 in [1] is over 10000 nM; at Collagenase 3, 316 nM. In data set [2], this molecule gave a microsomal CLint of under 2 µL/min/mg.

As for `CN(Cc1ccncc1)C(=O)c1ccc(Oc2ccc(C#C[C@]3(O)CN4CCC3CC4)cc2)cc1`, the IC50 in data set [1] is over 10000 nM; on Collagenase 3, 251 nM.

Turning to `CS(=O)(=O)N1CCC(NC(=O)c2ccc(Oc3ccc(C#C[C@]4(O)CN5CCC4CC5)cc3)cc2)CC1`, the IC50 in data set [1] was 7940 nM; at Collagenase 3 it was 50.1 nM; in [3], over 10000 nM; in data set [5], over 10000 nM; in data set [6], over 10000 nM. This molecule came in with a microsomal CLint in data set [2] of 2.9 µL/min/mg. For the same molecule, the hepatocyte CLint in data set [4] is under 2 µL/min/1e6 cells.

For the molecule `N#Cc1cccc(CNC(=O)c2ccc(Oc3ccc(C#C[C@]4(O)CN5CCC4CC5)cc3)cc2)c1`, the figures for the IC50 (in data set [1]; on Collagenase 3) were over 10000 nM and 63.1 nM, respectively. The molecule also returned a microsomal CLint in data set [2] of 9.9 µL/min/mg.

As to `O=C(NCc1ccc(F)cc1)c1ccc(Oc2ccc(C#C[C@]3(O)CN4CCC3CC4)cc2)cc1`, the IC50 in [1] is 6310 nM; at Collagenase 3, 100 nM.

Turning to `O=C(NCc1ccnc2ccccc12)c1ccc(Oc2ccc(C#C[C@]3(O)CN4CCC3CC4)cc2)cc1`, the results for the IC50 (in data set [1]; on Collagenase 3) were 2000 nM and 20 nM, respectively. The molecule further returned a microsomal CLint in data set [2] of 26.1 µL/min/mg.

On to `O=C(NCc1ccccc1)c1ccc(Oc2ccc(C#C[C@]3(O)CN4CCC3CC4)cc2)cc1`, for which the figures for the IC50 (in data set [1]; at Collagenase 3) were 7940 nM and 63.1 nM, respectively. The molecule further showed a microsomal CLint in data set [2] of under 2 µL/min/mg.

Take `COc1ccc(CNC(=O)c2ccc(Oc3ccc(C#C[C@]4(O)CN5CCC4CC5)cc3)cc2)cc1OC`: the IC50 in [1] is 1260 nM; at Collagenase 3, 10 nM. In [2], this molecule gave a microsomal CLint of 2.7 µL/min/mg.

Regarding `O=C(O)c1ccc(Oc2ccc(C#C[C@]3(O)CN4CCC3CC4)cc2)cc1`, the IC50 on Collagenase 3 is 5010 nM.

Take `C[S+]([O-])c1ccc(Oc2ccc(C#C[C@]3(O)CN4CCC3CC4)cc2)cc1` (stereo partly specified): the IC50 at Collagenase 3 is 398 nM.

With `CN(C)C(=O)c1ccc(Oc2ccc(C#C[C@]3(O)CN4CCC3CC4)cc2)cc1`, the IC50 on Collagenase 3 was 1580 nM.

Take `CONC(=O)c1ccc(Oc2ccc(C#C[C@]3(O)CN4CCC3CC4)cc2)cc1`: at Collagenase 3, the IC50 was 2510 nM.

Consider `CC[C@@H](C)NC(=O)c1ccc(Oc2ccc(C#C[C@]3(O)CN4CCC3CC4)cc2)cc1`, for which the IC50 in data set [1] was 6310 nM; at Collagenase 3, 50.1 nM. Also, the microsomal CLint in data set [2] was 8.9 µL/min/mg.

As to `CC(C)NC(=O)c1ccc(Oc2ccc(C#C[C@]3(O)CN4CCC3CC4)cc2)cc1`, the IC50 was over 10000 nM in [1] and 100 nM on Collagenase 3.

For `CCOC(=O)c1ccc(Oc2ccc(C#C[C@]3(O)CN4CCC3CC4)cc2)cc1`, the IC50 on Collagenase 3 was 1000 nM.

With `COc1ccc(CNC(=O)c2ccc(Oc3ccc(C#C[C@]4(O)CN5CCC4CC5)cc3)cc2)c(OC)c1`, the IC50 was 6310 nM in data set [1] and 39.8 nM on Collagenase 3. Further, the microsomal CLint in data set [2] was determined as 16.1 µL/min/mg.

On to `O=C(NC1CCN(C(=O)C2CC2)CC1)c1ccc(Oc2ccc(C#C[C@]3(O)CN4CCC3CC4)cc2)cc1`, for which the IC50 was 6310 nM in [1]; 25.1 nM at Collagenase 3; over 10000 nM in [3]; over 10000 nM in data set [5]; over 10000 nM in data set [6]. Further, in [2], the microsomal CLint was 3.7 µL/min/mg.

Take `O=C(NCc1ccncc1)c1ccc(Oc2ccc(C#C[C@]3(O)CN4CCC3CC4)cc2)cc1`: in [1], the IC50 was 6310 nM. This molecule also had a microsomal CLint in data set [2] of 10.2 µL/min/mg.

`Cc1cc(CN(C)C(=O)c2ccc(Oc3ccc(C#C[C@]4(O)CN5CCC4CC5)cc3)cc2)on1`: the IC50 in data set [1] is 7940 nM; on Collagenase 3, 79.4 nM. In addition, the Papp B→A – broadly, the apparent permeability from the basolateral to the apical side of a cell layer – at 10 µM in data set [7] was 53 ×10⁻⁶ cm/s. For the same molecule, the microsomal CLint in data set [2] came to 2.7 µL/min/mg. For the same molecule, in data set [8], the Papp A→B (commonly the apparent permeability from the apical to the basolateral side of a cell layer) at 10 µM was found to be 8.2 ×10⁻⁶ cm/s. The bioavailability (in general, dose-corrected exposure relative to a reference, in per cent) in [9] stood at 3%.

`CS(=O)(=O)c1cccc(CNC(=O)c2ccc(Oc3ccc(C#C[C@]4(O)CN5CCC4CC5)cc3)cc2)c1`: the IC50 in [1] was 7940 nM; at Collagenase 3, 31.6 nM. Besides, in [2], the intrinsic metabolic clearance (microsomal CLint) turned out to be 12.5 µL/min/mg.

As to `CC(=O)Nc1ccc(Oc2ccc(C#C[C@]3(O)CN4CCC3CC4)cc2)cc1`, the IC50 at Collagenase 3 is over 10000 nM.

With `CNC(=O)N1CCC(NC(=O)c2ccc(Oc3ccc(C#C[C@]4(O)CN5CCC4CC5)cc3)cc2)CC1`, the IC50 was 3980 nM in [1]; 50.1 nM on Collagenase 3; over 10000 nM in data set [3]; over 10000 nM in [5]; over 10000 nM in data set [6]. This molecule had an intrinsic clearance (microsomal CLint) in data set [2] of under 2 µL/min/mg.

Turning to `COc1ccc(CNC(=O)c2ccc(Oc3ccc(C#C[C@]4(O)CN5CCC4CC5)cc3)cc2)nc1`, the IC50 is over 10000 nM in [1] and 31.6 nM at Collagenase 3. Moreover, in [2], the microsomal CLint came to 5.6 µL/min/mg. Also, in data set [10], the Ratio pIC50 is over 300.

Regarding `CC(=O)N1CCC(NC(=O)c2ccc(Oc3ccc(C#C[C@]4(O)CN5CCC4CC5)cc3)cc2)CC1`, the IC50 in data set [1] is 5010 nM; on Collagenase 3 it was 39.8 nM; in data set [3], over 10000 nM; in data set [5], over 10000 nM; in data set [6], over 10000 nM. This molecule also gave a microsomal CLint in data set [2] of 2.5 µL/min/mg. The hepatocyte CLint in data set [4] was under 2 µL/min/1e6 cells.

`CS(=O)(=O)Nc1ccc(Oc2ccc(C#C[C@]3(O)CN4CCC3CC4)cc2)cc1`: the IC50 on Collagenase 3 is 2510 nM.

`COc1cc(CNC(=O)c2ccc(Oc3ccc(C#C[C@]4(O)CN5CCC4CC5)cc3)cc2)cc(OC)c1`: the IC50 was 7940 nM in data set [1] and 50.1 nM on Collagenase 3. Besides, in [2], the microsomal CLint turned out to be 4.8 µL/min/mg.

Take `CS(=O)(=O)c1ccc(Oc2ccc(C#C[C@]3(O)CN4CCC3CC4)cc2)cc1`: the IC50 at Collagenase 3 was 316 nM.

Take `CS(=O)(=O)Oc1cccc(CNC(=O)c2ccc(Oc3ccc(C#C[C@]4(O)CN5CCC4CC5)cc3)cc2)c1`: the values for the IC50 (in data set [1]; on Collagenase 3) were 7940 nM and 63.1 nM, respectively. In [2], this molecule displayed a microsomal CLint of 8.6 µL/min/mg.

For `O=C(NC1CCS(=O)(=O)CC1)c1ccc(Oc2ccc(C#C[C@]3(O)CN4CCC3CC4)cc2)cc1`, the IC50 was over 10000 nM in data set [1]; 100 nM at Collagenase 3; over 10000 nM in data set [3]; over 10000 nM in data set [5]; over 10000 nM in data set [6]. In data set [2], this molecule gave a microsomal CLint of 2.5 µL/min/mg.

For `OCc1ccc(Oc2ccc(C#C[C@]3(O)CN4CCC3CC4)cc2)cc1`, the IC50 on Collagenase 3 is over 10000 nM.

As for `O=C(NC1CCN(C2CC2)CC1)c1ccc(Oc2ccc(C#C[C@]3(O)CN4CCC3CC4)cc2)cc1`, the IC50 in data set [1] was 7940 nM; at Collagenase 3, 79.4 nM; in data set [3] it was over 10000 nM; in data set [5], over 10000 nM; in data set [6] it was over 10000 nM. Moreover, the microsomal CLint in data set [2] is 4.7 µL/min/mg.

Turning to `C[C@@H](NC(=O)c1ccc(Oc2ccc(C#C[C@]3(O)CN4CCC3CC4)cc2)cc1)c1ccncc1`, the IC50 in data set [1] is 3980 nM; at Collagenase 3 it was 12.6 nM. Also, in [2], the microsomal CLint worked out at 18.8 µL/min/mg. Also, in data set [10], the Ratio pIC50 was over 300.

Consider `O=C(NCC1CCCCC1)c1ccc(Oc2ccc(C#C[C@]3(O)CN4CCC3CC4)cc2)cc1`, for which the IC50 is 5010 nM in [1] and 100 nM at Collagenase 3.

As for `NC(=O)c1ccc(Oc2ccc(C#C[C@]3(O)CN4CCC3CC4)cc2)cc1`, at Collagenase 3, the IC50 was 631 nM.

Take `O=C(NC1CCS(=O)(=O)C1)c1ccc(Oc2ccc(C#C[C@]3(O)CN4CCC3CC4)cc2)cc1` (stereo partly specified): the IC50 was 7940 nM in [1]; 79.4 nM at Collagenase 3; over 10000 nM in data set [3]; over 10000 nM in data set [5]; over 10000 nM in data set [6]. In [2], this molecule yielded a microsomal CLint of under 2 µL/min/mg. Also, the hepatocyte CLint in data set [4] was under 2 µL/min/1e6 cells.

On to `O=C(NC1CCCCC1)c1ccc(Oc2ccc(C#C[C@]3(O)CN4CCC3CC4)cc2)cc1`, for which the values for the IC50 (in [1]; on Collagenase 3) were over 10000 nM and 25.1 nM, respectively. In [2], this molecule came in with a microsomal CLint of 2.9 µL/min/mg.
